Data taken from ChEMBL document CHEMBL3352520, “CoMFA and CoMSIA analysis of ACE-inhibitory, antimicrobial and bitter-tasting peptides” (Eur J Med Chem, 2014).

Legend:
[1] = test system: Pseudomonas aeruginosa; experiment: antimicrobial activity against Pseudomonas aeruginosa
[2] = test system: Pseudomonas aeruginosa; experiment: Antimicrobial activity against Pseudomonas aeruginosa relative to peptide Bac2A RLARIVVIRVAR sequence

pIC50 [1] | Ratio IC50 [2] | Compound
6.37 | 0.43 | N=C(N)NCCC[C@H](NC(=O)[C@H](CCCCN)NC(=O)[C@H](CCCNC(=N)N)NC(=O)[C@@H](N)CCCNC(=N)N)C(=O)N[C@@H](Cc1c[nH]c2ccccc12)C(=O)N[C@@H](Cc1c[nH]c2ccccc12)C(=O)N[C@@H](Cc1c[nH]c2ccccc12)C(=O)N[C@@H](Cc1c[nH]c2ccccc12)C(=O)N[C@@H](Cc1c[nH]c2ccccc12)C(=O)O
5.74 | 1.82 | N=C(N)NCCC[C@H](NC(=O)[C@H](CCCNC(=N)N)NC(=O)[C@@H](N)CCCNC(=N)N)C(=O)N[C@@H](Cc1c[nH]c2ccccc12)C(=O)N[C@@H](Cc1c[nH]c2ccccc12)C(=O)N[C@@H](Cc1c[nH]c2ccccc12)C(=O)N[C@@H](Cc1c[nH]c2ccccc12)C(=O)N[C@@H](Cc1c[nH]c2ccccc12)C(=O)N[C@@H](Cc1c[nH]c2ccccc12)C(=O)O
6.68 | 0.21 | H-IRRRKWWWW-OH
6.64 | 0.23 | H-IRRRWWWIV-OH
6.52 | 0.3 | H-KKRWLWWWR-OH
6.55 | 0.28 | H-KRKIWWWIR-OH
6.4 | 0.4 | H-KRRRIWWWK-OH
6.89 | 0.13 | H-KRWWKWWRR-OH
6.66 | 0.22 | H-KRWWWWWKR-OH
6.7 | 0.2 | H-KWWKIWWKR-OH
6.06 | 0.88 | H-LRFILWWKR-OH
6.02 | 0.95 | H-RHWKTWWKR-OH
6.51 | 0.31 | H-RIKRWWWWR-OH
6.29 | 0.51 | H-RIKVIWWWR-OH
6.74 | 0.18 | H-RKRLKWWIY-OH
6.51 | 0.31 | H-RKWWRWWRW-OH
6.17 | 0.68 | H-RRIWRWWWW-OH
4.6 | 25 | H-RWILWWWRI-OH
6.41 | 0.39 | H-RWRRKWWWW-OH
6.62 | 0.24 | H-RWWRKWWIR-OH
6.12 | 0.76 | H-TRKVWWWRW-OH
5.6 | 2.5 | H-WHGVRWWKW-OH
6.6 | 0.25 | H-WKRWKWWKR-OH
6.64 | 0.23 | H-WRWWKWWRR-OH
